From patent US7459168B2, “Insecticide transpiration apparatus” (Dainihon Jochugiku Co., Ltd., priority 2002, dated 2008)

Tested on: mosquitos
Experiment: Insecticidal effect (knock-down effect) by the open cylinder method
Format: in vivo
Details: for Insecticidal effect 15d (relative effectiveness ratio): fifteenth day; for Insecticidal effect 1d (relative effectiveness ratio): first day; for Insecticidal effect 30d (relative effectiveness ratio): thirtieth day
From the text: An insecticide was impregnated in various kinds of raw materials for preparing insecticide impregnated materials. The resulting insecticide-impregnated materials were housed in their respective insecticide cartridges of Example 1 and Comparative Example 1, followed by mounting each of them on an insecticide transpiration apparatus of the present invention. Subsequently, each of them was subjected to a measurement for estimating the transpiring amount of the chemical and a test for estimating insecticide effects on the first, fifteenth and thirtieth days while using the apparatus for twelve hours a day.
A test of insecticidal effect (knock-down effect) was performed by the open cylinder method according to the following procedures.
Procedures for Estimating the Insecticidal Effect of an Insecticidal Compound
Two plastic cylinders of 20 cm in inside diameter and 43 cm in height are piled up. A cylinder of 20 cm both in inside diameter and height is partitioned vertically with a wire net of 16 mesh (the place where the mosquitos are put in), and is placed thereon. A cylinder of 20 cm in inside diameter and height is further placed thereon. This set consisting of the four cylinders is placed on a stand, and an insecticide transpiration apparatus is placed in the middle of the stand to transpire the insecticidal ingredient in the chemical-impregnated material to be examined. Then about 20 mosquitos to be tested are released in the upper stair of the cylinder set and the number of mosquitos knocked down is observed with the time elapsed.
Furthermore, the insecticidal effect was indicated as a relative effectiveness ratio in which an initial turning-over effect obtained by evaporation from a mosquito-repellent mat containing dl, d-cis, trans-allethrin (Pynamin Forte) on condition that a radiator plate of a heating unit is at a temperature of 160° C. The above test was repeated with various kinds of insecticides and the various amounts thereof, various chemical-impregnated materials and various particle sizes thereof, various free-volumes of the insecticide cartridge, various rotational speeds of the motor, respectively.

[1] = cartridge of Comparative Example 1, relative to Pynamin Forte mat
[2] = cartridge of Example 1, relative to Pynamin Forte mat
[3] = cartridge of Example 1, relative to initial effect of dl, d-cis, trans-allethrin (Pynamin Forte) mat at 160° C.

Structure (SMILES) | Insecticidal effect 15d (relative effectiveness ratio) [1] | Insecticidal effect 1d (relative effectiveness ratio) [1] | Insecticidal effect 30d (relative effectiveness ratio) [1] | Insecticidal effect 15d (relative effectiveness ratio) [2] | Insecticidal effect 1d (relative effectiveness ratio) [3] | Insecticidal effect 30d (relative effectiveness ratio) [2]
CC=CC1C(C(=O)OCc2c(F)c(F)cc(F)c2F)C1(C)C (stereo not drawn) [Compound B, 2,3,5,6-tetrafluorobenzyl-2,2-dimethyl-3-(1-propenyl) cyclopropane carboxylate] | 2.1 | 2.2 | 2.0 | 2.7 | 2.8 | 2.7
CC(C)=CC1C(C(=O)OCc2c(F)c(F)c(C)c(F)c2F)C1(C)C (stereo not drawn) [Compound C, 4-methyl-2,3,5,6-tetrafluorobenzyl-chrysanthemate] | 1.7 | 1.8 | 1.6 | 2.2 | 2.3 | 2.2
CC1(C)C(C=C(Cl)C(F)(F)F)C1C(=O)OCc1c(F)c(F)c(F)c(F)c1F (stereo not drawn) [Compound H, 2,3,4,5,6-pentafluorobenzyl-2,2-dimethyl-3-(2-chloro-2-trifluoromethylvinyl)cyclopropane carboxylate] | 1.7 | 1.9 | 1.7 | 2.3 | 2.4 | 2.3
CC(C)=CC1C(C(=O)OCc2c(F)c(F)cc(F)c2F)C1(C)C (stereo not drawn) [Compound A, 2,3,5,6-tetrafluorobenzyl-chrysanthemate] | 3.3 | 3.4 | 3.3 | 3.8 | 3.9 | 3.8
CC=CC1C(C(=O)OCc2c(F)c(F)c(COC)c(F)c2F)C1(C)C (stereo not drawn) [Compound G, 4-methoxymethyl-2,3,5,6-tetrafluorobenzyl-2,2-dimethyl-3-(1-propenyl)cyclopropane carboxylate] | 2.8 | 2.9 | 2.8 | 3.4 | 3.4 | 3.4
CC=CC1C(C(=O)OCc2c(F)c(F)c(C)c(F)c2F)C1(C)C (stereo not drawn) [Compound D, 4-methyl-2,3,5,6-tetrafluorobenzyl-2,2-dimethyl-3-(1-propenyl)cyclopropane carboxylate] | 2.7 | 2.8 | 2.6 | 3.2 | 3.2 | 3.1
COCc1c(F)c(F)c(COC(=O)C2C(C=C(C)C)C2(C)C)c(F)c1F (stereo not drawn) [Compound F, 4-methoxymethyl-2,3,5,6-tetrafluorobenzyl-chrysanthemate] | 1.7 | 1.9 | 1.5 | 2.5 | 2.6 | 2.5
C#CCc1c(F)c(F)c(COC(=O)C2C(C=CC)C2(C)C)c(F)c1F (stereo not drawn) [Compound I, 4-propargyl-2,3,5,6-tetrafluorobenzyl-3-(1-propenyl)-2,2-dimethylcyclopropane carboxylate] | 2.5 | 2.6 | 2.4 | 2.9 | 3.0 | 2.9
Cc1c(F)c(F)c(COC(=O)C2C(C=C(F)F)C2(C)C)c(F)c1F (stereo not drawn) [Compound E, 4-methyl-2,3,5,6-tetrafluorobenzyl-2,2-dimethyl-3-(2,2-difluorovinyl)cyclopropane carboxylate] | 2.3 | 2.4 | 2.3 | 2.8 | 2.9 | 2.8
C#CCc1c(F)c(F)c(COC(=O)C2C(C)(C)C2(C)C)c(F)c1F [Compound K, 4-propargyl-2,3,5,6-tetrafluorobenzyl-2,2,3,3-tetramethyl cyclopropane carboxylate] | 2.2 | 2.3 | 2.1 | 2.7 | 2.8 | 2.7
COCc1c(F)c(F)c(COC(=O)C2C(C)(C)C2(C)C)c(F)c1F [Compound J, 4-methoxymethyl-2,3,5,6-tetrafluorobenzyl-2,2,3,3-tetramethylcyclopropane carboxylate] | 2.4 | 2.5 | 2.4 | 2.8 | 2.9 | 2.8
